From patent US5494820A, “Streptomyces braegensis strain and its cultivation in a process for producing C9 -desoxo-FK-520” (Pfizer Inc., priority 1994, dated 1996) come the findings set out here.

The structures appear in SMILES notation.

In one experiment the test system is human FK-binding protein. Description: Inhibition of rotamase activity of FK-binding protein. The class given is biochemical.
For a further experiment, the system named is mouse T lymphocytes. Briefly: Immunosuppressive activity (proliferation of T lymphocytes stimulated with ionomycin plus PMA, tritiated thymidine uptake). Type of experiment: cell-based, mouse (C57BI/6). Conditions: general statement; no value given. Here is the method:
A positive sample in this assay will inhibit-T-cell proliferation, as indicated by reduced tritiated thymidine uptake.
Spleens from C57BI/6 mice are taken under sterile conditions and gently dissociated in ice-cold RPMI 1640 (trademark) culture medium (GIBCO (trademark)) supplemented with 10% heat-inactivated fetal calf serum (GIBCO (trademark)). Cells are pelleted by centrifugation at 1500 rpm for 8 minutes. Contaminating red cells are removed by treating the pellet with ammonium chloride lysing buffer (GIBCO (trademark)) for 2 minutes at 4° C. Cold medium is added and cells are again centrifuged at 1500 rpm for 8 minutes. […]
Purified T lymphocytes are resuspended at 10^6 cells/ml in complete culture medium composed of RPMI 1640 (trademark) medium with 10% heat-inactivated fetal calf serum, […] glutamine, 1 mM sodium pyruvate, 20 µm 2-mercaptoethanol and 50 μg/ml gentamicin. […] The proliferation of T lymphocytes is assessed by measurement of tritiated […] incorporation. […] Radioactivity of filter discs corresponding to individual wells is measured by standard liquid scintillation counting method (Beta plate counter). Mean counts per minute of replicate wells are calculated and the results expressed as percent inhibition of tritiated thymidine uptake (proliferation) as follows: [formula]

Experiment [1] deals with pathogenic filamentus fungal organisms. Description: Antimicrobial activity (general statement).

For `CCC1C=C(C)CC(C)CC(OC)C2OC(O)(CC(=O)N3CCCCC3C(=O)OC(C(C)=CC3CCC(O)C(OC)C3)C(C)C(O)CC1=O)C(C)CC2OC` (stereo not drawn) [compound of the formula I, C9 -desoxo-FK-520], the “inhibition of the rotamase activity of human FK-binding protein” value in the experiment on human FK-binding protein is “inhibits the rotamase activity of human FK-binding protein”. Moreover, in the experiment with mouse T lymphocytes, the immunosuppressive activity entry is “has immunosuppressive activity”. In addition, the antimicrobial activity result in experiment [1] was “has antimicrobial activity”.
